Laboratory results published in patent publication US10968193B2, “Antidiabetic bicyclic compounds” (Merck Sharp & Dohme Corp., priority 2014, dated 2021).

target: T1, human GPR40 (Homo sapiens, UniProt O14842); experiment: Inositol Phosphate Turnover (IP1) Assay 2; type: cell-based; settings: HEK cells stably expressing human GPR40; 15,000 cells per well; compound acoustically transferred; CisBio IP-One kit
T1 construct: expressed in transfected cells; host or cells: HEK cells stably expressing the aequorin reporter
Method in brief: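 HEK cells stably expressing human GPR40, plated 16 h beforehand, were exposed to compound in stimulation buffer for 60 min at 37 °C. IP1 accumulation was detected by HTRF (665/620 nm ratio) after 60 min with detection reagents and converted to IP1 concentration from a same-day standard curve.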

T1 sequence (O14842 whole entry): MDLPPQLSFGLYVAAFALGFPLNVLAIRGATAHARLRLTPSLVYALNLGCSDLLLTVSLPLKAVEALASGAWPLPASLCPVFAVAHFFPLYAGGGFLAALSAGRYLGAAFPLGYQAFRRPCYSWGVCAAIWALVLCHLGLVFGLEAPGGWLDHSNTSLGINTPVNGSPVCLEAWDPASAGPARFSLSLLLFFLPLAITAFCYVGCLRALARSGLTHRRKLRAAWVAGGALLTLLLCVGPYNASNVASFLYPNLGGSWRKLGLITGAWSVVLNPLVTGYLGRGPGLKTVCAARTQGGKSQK

Row | SMILES | EC50 [nM]
1 | COC[C@@H]1CCCN1Cc1cc([C@H]2CCc3ccc([C@H](C4CC4)[C@H](C)C(=O)O)cc3O2)ccc1-c1cc(OC)ncc1F [Example 135] | 5
2 | COc1cc(-c2ccc([C@H]3CCc4ccc([C@H](C5CC5)[C@H](C)C(=O)O)cc4O3)cc2CN2CCC[C@@H]2C)c(F)cn1 [Example 136] | 4.6
3 | COc1cc(-c2ccc([C@H]3CCc4ccc([C@H](C5CC5)[C@H](C)C(=O)O)cc4O3)cc2CN2CCC[C@H]2C)c(F)cn1 [Example 137] | 4.6
4 | CCN(CC)Cc1cc([C@H]2CCc3ccc([C@H](C4CC4)[C@H](C)C(=O)O)cc3O2)ccc1-c1cc(OC)ncc1F [Example 145] | 2.7
5 | COc1cc(-c2ccc([C@H]3CCc4ccc([C@H](C5CC5)[C@H](C)C(=O)O)cc4O3)cc2CN2C3CCC2CC3)c(F)cn1 [Example 148] | 4.2
6 | COc1cc(-c2ccc([C@H]3CCc4ccc([C@H](C5CC5)[C@H](C)C(=O)O)cc4O3)cc2CNCC(F)(F)F)c(F)cn1 [Example 149] | 2.5
7 | COc1cc(-c2ccc([C@H]3CCc4ccc([C@H](C5CC5)[C@H](C)C(=O)O)cc4O3)cc2CN2CCC2(C)C)c(F)cn1 [Example 156] | 8.3
8 | COc1cc(-c2ccc([C@@H]3CCc4ccc([C@H](C5CC5)[C@H](C)C(=O)O)cc4O3)cc2CN2CCC2(C)C)c(F)cn1 [Example 157] | 4.2
9 | CCN(CC)Cc1cc([C@@H]2CCc3ccc([C@H](C4CC4)[C@H](C)C(=O)O)cc3O2)ccc1-c1cc(OC)ncc1F [Example 159] | 3.3
10 | COc1cc(-c2ccc([C@@H]3CCc4ccc([C@H](C5CC5)[C@H](C)C(=O)O)cc4O3)cc2CN2CCCC2(C)C)c(F)cn1 [Example 160] | 2.5
11 | COc1cc(-c2ccc([C@@H]3CCc4ccc([C@H](C5CC5)[C@H](C)C(=O)O)cc4O3)cc2CN2C3CCC2CC3)c(F)cn1 [Example 162] | 5.4
12 | COC[C@H]1CCCN1Cc1cc([C@H]2CCc3ccc([C@H](C4CC4)[C@H](C)C(=O)O)cc3O2)ccc1-c1cc(OC)ncc1F [Example 163] | 3.3
13 | COc1cc(-c2ccc([C@H]3CCc4ccc([C@H](C5CC5)[C@H](C)C(=O)O)cc4O3)cc2CN2CCCCC2)c(F)cn1 [Example 165] | 3.9
14 | COc1cc(-c2ccc([C@H]3CCc4ccc([C@H](C5CC5)[C@H](C)C(=O)O)cc4O3)cc2CN2CCCC[C@@H]2C)c(F)cn1 [Example 168] | 2.9
15 | COc1cc(-c2cc(F)c(C3CCc4ccc([C@H](C5CC5)[C@H](C)C(=O)O)cc4O3)cc2CN2CCCC2)ccn1 (stereo partly drawn) [Example 180, 1RS, (2S, 3R)-3-cyclopropyl-3-(2-(2-fluoro-4-(2-methoxypyridin-4-yl)-5-(pyrrolidin-1-ylmethyl)phenyl)chroman-7-yl)-2-methylpropanoic acid] | 41

Next, values leading:

Row | EC50 [nM] | SMILES
16 | 2.2 | COc1cc(-c2ccc([C@H]3CCc4ccc([C@H](C5CC5)[C@H](C)C(=O)O)cc4O3)cc2CN2CCCC[C@H]2C)c(F)cn1 [Example 167]
17 | 2 | COc1cc(-c2ccc([C@@H]3CCc4ccc([C@H](C5CC5)[C@H](C)C(=O)O)cc4O3)cc2CN2CCCCC2)c(F)cn1 [Example 151]
18 | 1.8 | COc1cc(-c2ccc([C@@H]3CCc4ccc([C@H](C5CC5)[C@H](C)C(=O)O)cc4O3)cc2CN2CCC[C@@H]2C)c(F)cn1 [Example 140]
19 | 1.8 | COc1cc(-c2ccc([C@H]3CCc4ccc([C@H](C5CC5)[C@H](C)C(=O)O)cc4O3)cc2CN2CCCC2(C)C)c(F)cn1 [Example 146]
20 | 1.8 | COc1cc(-c2ccc([C@@H]3CCc4ccc([C@H](C5CC5)[C@H](C)C(=O)O)cc4O3)cc2CN2CCC(C)(C)CC2)c(F)cn1 [Example 155]
21 | 1.7 | COc1cc(-c2ccc([C@H]3CCc4ccc([C@H](C5CC5)[C@H](C)C(=O)O)cc4O3)cc2CN2CCC(C)(C)CC2)c(F)cn1 [Example 169]
22 | 1.6 | COC[C@H]1CCCN1Cc1cc([C@@H]2CCc3ccc([C@H](C4CC4)[C@H](C)C(=O)O)cc3O2)ccc1-c1cc(OC)ncc1F [Example 164]
23 | 1.3 | COc1cc(-c2ccc([C@@H]3CCc4ccc([C@H](C5CC5)[C@H](C)C(=O)O)cc4O3)cc2CN2CCCC[C@@H]2C)c(F)cn1 [Example 154]
24 | 1.1 | COc1cc(-c2ccc([C@@H]3CCc4ccc([C@H](C5CC5)[C@H](C)C(=O)O)cc4O3)cc2CN2CCC[C@H]2C)c(F)cn1 [Example 141]
25 | 1.1 | COc1cc(-c2ccc([C@H]3CCc4ccc([C@H](C5CC5)[C@H](C)C(=O)O)cc4O3)cc2CN2CCCC(C)(C)C2)c(F)cn1 [Example 142]
26 | 1.1 | COc1cc(-c2ccc([C@@H]3CCc4ccc([C@H](C5CC5)[C@H](C)C(=O)O)cc4O3)cc2CN2CCCC[C@H]2C)c(F)cn1 [Example 153]
27 | 1 | COc1cc(-c2ccc([C@@H]3CCc4ccc([C@H](C5CC5)[C@H](C)C(=O)O)cc4O3)cc2CNCC(F)(F)F)c(F)cn1 [Example 150]
28 | 0.8 | COC[C@@H]1CCCN1Cc1cc([C@@H]2CCc3ccc([C@H](C4CC4)[C@H](C)C(=O)O)cc3O2)ccc1-c1cc(OC)ncc1F [Example 134, (2S, 3R)-3-cyclopropyl-3-((S)-2-(4-(5-fluoro-2-methoxypyridin-4-yl)-3-(((S)-2-(methoxymethyl)pyrrolidin-1-yl)methyl)phenyl)chroman-7-yl)-2-methylpropanoic acid]
29 | 0.7 | COc1cc(-c2ccc([C@H]3CCc4ccc([C@H](C5CC5)[C@H](C)C(=O)O)cc4O3)cc2CN2[C@H](C)CC[C@H]2C)c(F)cn1 [Example 147]
30 | 0.6 | COc1cc(-c2ccc([C@@H]3CCc4ccc([C@H](C5CC5)[C@H](C)C(=O)O)cc4O3)cc2CN2[C@H](C)CC[C@H]2C)c(F)cn1 [Example 161]
31 | 0.5 | COc1cc(-c2ccc([C@@H]3CCc4ccc([C@H](C5CC5)[C@H](C)C(=O)O)cc4O3)cc2CN2CCCCC2(C)C)c(F)cn1 [Example 152]
32 | 0.3 | COc1cc(-c2ccc([C@@H]3CCc4ccc([C@H](C5CC5)[C@H](C)C(=O)O)cc4O3)cc2CN2CCCC(C)(C)C2)c(F)cn1 [Example 143]
33 | 0.3 | COc1cc(-c2ccc([C@H]3CCc4ccc([C@H](C5CC5)[C@H](C)C(=O)O)cc4O3)cc2CN2CCCCC23CC3)c(F)cn1 [Example 144]
34 | 0.3 | COc1cc(-c2ccc([C@H]3CCc4ccc([C@H](C5CC5)[C@H](C)C(=O)O)cc4O3)cc2CN2CCCCC2(C)C)c(F)cn1 [Example 166]

target: T1, human GPR40; experiment: Inositol Phosphate Turnover (IP1) Assay 1; type: cell-based; settings: HEK cells stably expressing human GPR40; 15,000 cells per well; compound transferred via pocket tip; CisBio IP-One kit
Procedure: Human and mouse GPR40 stable cell-lines were generated in CHO cells stably expressing NFAT BLA (Beta-lactamase). A human GPR40 stable cell-line was generated in HEK cells stably expressing the aequorin expressing reporter. The expression plasmids were transfected using lipofectamine (Life Technologies) following manufacturer's instructions. Stable cell-lines were generated following drug selection.
Inositol Phosphate Turnover (IP1) Assay 1:
The assay was performed in 384-well format. HEK cells stably expressing human GPR40 were plated at 15,000 cells per well in growth medium (DMEM/10% fetal calf serum). Cell plates were then incubated 16 hours at 37 degrees in a 5% CO2 incubator.
Measurement of Inositol Phosphate Turnover (IP1) was performed using the CisBio IP-One kit (Part number 62IPAPEB). After the 16 hour incubation, the cells were washed with HEPES buffer and 10 ul of stimulation buffer (prepared as described in the kit) is added to each well. In a separate plate, compounds were diluted in DMSO (400-fold over the final concentration in the assay well) and 25 nl was transferred via pocket tip to the appropriate well in the assay cell plate. The plates were then incubated for 60 minutes at 37 degrees. 10 ul of detection buffer (also prepared as described in the IP-One kit) was added to each well and the plates were incubated for 60 minutes in the dark. The plates were then read in a Perkin Elmer EnVision or equivalent reader able to measure FRET. Fluorescent ratio of emission at 665 and 620 nm was then converted to IP1 concentration by back calculating from an IP1 standard curve prepared at the time of the assay.

Row | EC50 [nM] | SMILES
35 | 2990 | COc1ccc(F)c(-c2ccc(C3CCc4ccc([C@H](C5CC5)[C@H](C)C(=O)O)cc4O3)cc2CN)c1 (mixture of isomers) [Example 2]
36 | 193 | COc1cc(-c2ccc(C3CCc4ccc([C@H](C5CC5)[C@H](C)C(=O)O)cc4O3)cc2CN2CCC2)c(F)cn1 (mixture of isomers) [Example 10]
37 | 8.6 | COc1cc(-c2ccc(C3CCc4ccc([C@H](C5CC5)[C@H](C)C(=O)O)cc4O3)cc2CN(C)C)c(F)cn1 (stereo partly drawn) [Example 1, (2S,3R)-3-cyclopropyl-3-(2-(3-((dimethylamino)methyl)-4-(5-fluoro-2-methoxypyridin-4-yl)phenyl)chroman-7-yl)-2-methylpropanoic acid]
38 | 18 | COc1cc(-c2ccc(C3CCc4ccc([C@H](C5CC5)[C@H](C)C(=O)O)cc4O3)cc2C(C)N(C)C)c(F)cn1 (some centres unmarked) [Example 3]
